Measurements: PMC7162861, “Synthesis, cytotoxicity, pharmacokinetic profile, binding with DNA and BSA of new imidazo[1,2-a]pyrazine-benzo[d]imidazol-5-yl hybrids” (Scientific Reports, 2020)

Experiments:
[1] = test system: CCRF-CEM; experiment: NCI cytotoxicity screen, Leukemia panel; format: cell-based; conditions: Homo sapiens, single dose 10 µM, negative = lethal, read-out: Percent growth inhibition
Description: (§1) Cytotoxicity was performed at National Cancer Institute (NCI), Bethesda, USA as per their protocols.

[2] = test system: HL-60(TB); experiment: NCI cytotoxicity screen, Leukemia panel; format: cell-based; conditions: Homo sapiens, HL-60, HL-60(TB); single dose 10 µM; negative = lethal; read-out: Percent growth inhibition
Description: as §1

[3] = test system: K-562; experiment: NCI cytotoxicity screen, Leukemia panel; format: cell-based; conditions: Homo sapiens, K562; K-562; single dose 10 µM; negative = lethal; read-out: Percent growth inhibition
Description: as §1

[4] = test system: MOLT-4; experiment: NCI cytotoxicity screen, Leukemia panel; format: cell-based; conditions: Homo sapiens, MOLT-4, MOLT-4; single dose 10 µM; negative = lethal; read-out: Percent growth inhibition
Description: as §1

[5] = test system: RPMI-8226; experiment: NCI cytotoxicity screen, Leukemia panel; format: cell-based; conditions: Homo sapiens; RPMI-8226; single dose 10 µM; negative = lethal; read-out: Percent growth inhibition
Description: as §1

[6] = test system: SR; experiment: NCI cytotoxicity screen, Leukemia panel; format: cell-based; conditions: Homo sapiens, single dose 10 µM, negative = lethal, read-out: Percent growth inhibition
Description: as §1

[7] = test system: A549/ATCC; experiment: NCI cytotoxicity screen, Non-Small Cell Lung Cancer panel; format: cell-based; conditions: Homo sapiens; A549/ATCC; single dose 10 µM; negative = lethal; read-out: Percent growth inhibition
Description: as §1

[8] = test system: EXVX; experiment: as above; format: cell-based; conditions: Homo sapiens; EXVX; single dose 10 µM; negative = lethal; read-out: Percent growth inhibition
Description: as §1

[9] = test system: HOP-62; experiment: as above; format: cell-based; conditions: Homo sapiens, single dose 10 µM, negative = lethal, read-out: Percent growth inhibition
Description: as §1

[10] = test system: HOP-92; experiment: as above; format: cell-based; conditions: Homo sapiens, single dose 10 µM, negative = lethal, read-out: Percent growth inhibition
Description: as §1

[11] = test system: NCI-H460; experiment: as above; format: cell-based; conditions: Homo sapiens, single dose 10 µM, negative = lethal, read-out: Percent growth inhibition
Description: as §1

[12] = test system: COLO 205; experiment: NCI cytotoxicity screen, Colon Cancer panel; format: cell-based; conditions: Homo sapiens, single dose 10 µM, negative = lethal, read-out: Percent growth inhibition
Description: as §1

[13] = test system: HCT-116; experiment: NCI cytotoxicity screen, Colon Cancer panel; format: cell-based; conditions: Homo sapiens, single dose 10 µM, negative = lethal, read-out: Percent growth inhibition
Description: as §1

[14] = test system: HCT-15; experiment: NCI cytotoxicity screen, Colon Cancer panel; format: cell-based; conditions: Homo sapiens, single dose 10 µM, negative = lethal, read-out: Percent growth inhibition
Description: as §1

[15] = test system: HT29; experiment: NCI cytotoxicity screen, Colon Cancer panel; format: cell-based; conditions: Homo sapiens, HT-29; HT29; single dose 10 µM; negative = lethal; read-out: Percent growth inhibition
Description: as §1

[16] = test system: HCC-2998; experiment: NCI cytotoxicity screen, Colon Cancer panel; format: cell-based, human; conditions: Homo sapiens; HCC-2998; single dose 10 µM; negative = lethal; read-out: Percent growth inhibition
Description: as §1

[17] = test system: KM12; experiment: NCI cytotoxicity screen, Colon Cancer panel; format: cell-based, human; conditions: Homo sapiens, single dose 10 µM, negative = lethal, read-out: Percent growth inhibition
Description: as §1

[18] = test system: SW-620; experiment: NCI cytotoxicity screen, Colon Cancer panel; format: cell-based, human; conditions: Homo sapiens, single dose 10 µM, negative = lethal, read-out: Percent growth inhibition
Description: as §1

[19] = test system: SF-268; experiment: NCI cytotoxicity screen, CNS Cancer panel; format: cell-based; conditions: Homo sapiens, single dose 10 µM, negative = lethal, read-out: Percent growth inhibition
Description: as §1

[20] = test system: SF-295; experiment: NCI cytotoxicity screen, CNS Cancer panel; format: cell-based; conditions: Homo sapiens, single dose 10 µM, negative = lethal, read-out: Percent growth inhibition
Description: as §1

[21] = test system: SF-539; experiment: NCI cytotoxicity screen, CNS Cancer panel; format: cell-based; conditions: Homo sapiens, single dose 10 µM, negative = lethal, read-out: Percent growth inhibition
Description: as §1

[22] = test system: SNB-19; experiment: NCI cytotoxicity screen, CNS Cancer panel; format: cell-based; conditions: Homo sapiens; SNB-19; single dose 10 µM; negative = lethal; read-out: Percent growth inhibition
Description: as §1

[23] = test system: SNB-75; experiment: NCI cytotoxicity screen, CNS Cancer panel; format: cell-based; conditions: Homo sapiens, single dose 10 µM, negative = lethal, read-out: Percent growth inhibition
Description: as §1

[24] = test system: U251; experiment: NCI cytotoxicity screen, CNS Cancer panel; format: cell-based; conditions: Homo sapiens, U-251; U251; single dose 10 µM; negative = lethal; read-out: Percent growth inhibition
Description: as §1

[25] = test system: LOX IMVI; experiment: NCI cytotoxicity screen, Melanoma panel; format: cell-based, human; conditions: Homo sapiens, single dose 10 µM, negative = lethal, read-out: Percent growth inhibition
Description: as §1

[26] = test system: M14; experiment: NCI cytotoxicity screen, Melanoma panel; format: cell-based, human; conditions: Homo sapiens, single dose 10 µM, negative = lethal, read-out: Percent growth inhibition
Description: as §1

[27] = test system: UACC-62; experiment: NCI cytotoxicity screen, Melanoma panel; format: cell-based, human; conditions: Homo sapiens, single dose 10 µM, negative = lethal, read-out: Percent growth inhibition
Description: as §1

[28] = test system: MALME-3M; experiment: NCI cytotoxicity screen, Melanoma panel; format: cell-based; conditions: Homo sapiens; MALME-3M; single dose 10 µM; negative = lethal; read-out: Percent growth inhibition
Description: as §1

[29] = test system: MDA-MB-435; experiment: NCI cytotoxicity screen, Melanoma panel; format: cell-based; conditions: Homo sapiens, MDA-MB-435, read-out: Percent growth inhibition
Description: as §1

[30] = test system: SK-MEL-28; experiment: NCI cytotoxicity screen, Melanoma panel; format: cell-based; conditions: Homo sapiens, single dose 10 µM, negative = lethal, read-out: Percent growth inhibition
Description: as §1

[31] = test system: SK-MEL-2; experiment: NCI cytotoxicity screen, Melanoma panel; format: cell-based; conditions: Homo sapiens, single dose 10 µM, negative = lethal, read-out: Percent growth inhibition
Description: as §1

[32] = test system: SK-MEL-5; experiment: NCI cytotoxicity screen, Melanoma panel; format: cell-based; conditions: Homo sapiens, single dose 10 µM, negative = lethal, read-out: Percent growth inhibition
Description: as §1

[33] = test system: UACC-257; experiment: NCI cytotoxicity screen, Melanoma panel; format: cell-based; conditions: Homo sapiens, single dose 10 µM, negative = lethal, read-out: Percent growth inhibition
Description: as §1

[34] = test system: 786-0; experiment: NCI cytotoxicity screen, Renal Cancer panel; format: cell-based, human; conditions: Homo sapiens, single dose 10 µM, negative = lethal, read-out: Percent growth inhibition
Description: as §1

[35] = test system: TK-10; experiment: NCI cytotoxicity screen, Renal Cancer panel; format: cell-based, human; conditions: Homo sapiens, single dose 10 µM, negative = lethal, read-out: Percent growth inhibition
Description: as §1

[36] = test system: A498; experiment: NCI cytotoxicity screen, Renal Cancer panel; format: cell-based; conditions: Homo sapiens, single dose 10 µM, negative = lethal, read-out: Percent growth inhibition
Description: as §1

[37] = test system: ACHN; experiment: NCI cytotoxicity screen, Renal Cancer panel; format: cell-based; conditions: Homo sapiens, single dose 10 µM, negative = lethal, read-out: Percent growth inhibition
Description: as §1

[38] = test system: RXF 393; experiment: NCI cytotoxicity screen, Renal Cancer panel; format: cell-based; conditions: Homo sapiens, single dose 10 µM, negative = lethal, read-out: Percent growth inhibition
Description: as §1

[39] = test system: SN12C; experiment: NCI cytotoxicity screen, Renal Cancer panel; format: cell-based; conditions: Homo sapiens, single dose 10 µM, negative = lethal, read-out: Percent growth inhibition
Description: as §1

[40] = test system: UO-31; experiment: NCI cytotoxicity screen, Renal Cancer panel; format: cell-based; conditions: Homo sapiens, single dose 10 µM, negative = lethal, read-out: Percent growth inhibition
Description: as §1

[41] = test system: DU-145; experiment: NCI cytotoxicity screen, Prostate Cancer panel; format: cell-based, human; conditions: Homo sapiens, single dose 10 µM, negative = lethal, read-out: Percent growth inhibition
Description: as §1

[42] = test system: PC-3; experiment: NCI cytotoxicity screen, Prostate Cancer panel; format: cell-based, human; conditions: Homo sapiens, single dose 10 µM, negative = lethal, read-out: Percent growth inhibition
Description: as §1

[43] = Experimental log P, shake-flask method; format: physicochemical; conditions: n-octanol/phosphate buffer pH 7.4, read-out: Exp. Log P
Description: Partition coefficients or experimental log P values of all synthesized compounds (9–23, 30 and 31) were calculated using the shake-flask method. Log P values were determined using n-octanol and phosphate buffer (pH = 7.4) at 10:1 ratio of volumes. Stock solutions (10^−3 M) of compounds were prepared in DMSO. Glass vials were used to make final solutions i.e. stock solution (250 µL) and phosphate buffer (125 µL). To record the absorbance, wavelength was selected based on λmax of the respective compound. Initial absorbance (Ai) for every compound was noted consuming the stock solution in the buffer phase. Now added n-octanol to every vial and shaken well using a mechanical shaker for 50 minutes. To get separation of both phases, glass vials were centrifuged for 35 min. at 2500 rpm. Then, the layer of octanol was separated from glass vial. The final absorbance (Af) of each compound was recorded by using the buffer layer. The values of P for compounds were determined by the following equation (Eq. 8):8 P=Ai−Af/Af×Vw/Vo

Structure (SMILES): c1ccc(-c2cn3ccnc3c(-c3ccc4c(c3)ncn4C3CCCCC3)n2)cc1 [Compound 9, 8-(1-cyclohexyl-1H-benzo[d]imidazol-5-yl)-6-phenylimidazo[1,2-a]pyrazine]
- inhibition at 10 µM [1]: 11.7%
- inhibition at 10 µM [2]: 19.4%
- inhibition at 10 µM [3]: 31.1%
- inhibition at 10 µM [4]: 39.7%
- inhibition at 10 µM [5]: 18.3%
- inhibition at 10 µM [6]: 44.6%
- inhibition at 10 µM [7]: 9%
- inhibition at 10 µM [8]: 2.51%
- inhibition at 10 µM [9]: 12.9%
- inhibition at 10 µM [10]: 10.9%
- inhibition at 10 µM [11]: < 1%
- inhibition at 10 µM [12]: 0.28%
- inhibition at 10 µM [13]: 3.81%
- inhibition at 10 µM [14]: 19.1%
- inhibition at 10 µM [15]: 9.21%
- inhibition at 10 µM [16]: < 1%
- inhibition at 10 µM [17]: 5.7%
- inhibition at 10 µM [18]: < 1%
- inhibition at 10 µM [19]: 1.33%
- inhibition at 10 µM [20]: < 1%
- inhibition at 10 µM [21]: 2.17%
- inhibition at 10 µM [22]: 1.72%
- inhibition at 10 µM [23]: 5.65%
- inhibition at 10 µM [24]: 4.44%
- inhibition at 10 µM [25]: 4.86%
- inhibition at 10 µM [26]: 1.61%
- inhibition at 10 µM [27]: 2.01%
- inhibition at 10 µM [28]: < 1%
- inhibition at 10 µM [29]: 0.53%
- inhibition at 10 µM [30]: < 1%
- inhibition at 10 µM [31]: < 1%
- inhibition at 10 µM [32]: 5.71%
- inhibition at 10 µM [33]: < 1%
- inhibition at 10 µM [34]: 8.24%
- inhibition at 10 µM [35]: < 1%
- inhibition at 10 µM [36]: < 1%
- inhibition at 10 µM [37]: < 1%
- inhibition at 10 µM [38]: 23.3%
- inhibition at 10 µM [39]: 4.83%
- inhibition at 10 µM [40]: 20.9%
- inhibition at 10 µM [41]: 2.64%
- inhibition at 10 µM [42]: 13.5%
- logP [43]: 1.59

Structure (SMILES): COc1ccc(-c2cn3ccnc3c(-c3ccc4c(c3)ncn4C3CCCCC3)n2)cc1 [Compound 10, 8-(1-cyclohexyl-1H-benzo[d]imidazol-5-yl)-6-(4-methoxyphenyl)imidazo[1,2-a]pyrazine]
- inhibition at 10 µM [1]: 1.19%
- inhibition at 10 µM [2]: 23.3%
- inhibition at 10 µM [3]: 29.2%
- inhibition at 10 µM [4]: 34.2%
- inhibition at 10 µM [5]: 14.7%
- inhibition at 10 µM [6]: 29.7%
- inhibition at 10 µM [7]: 7.33%
- inhibition at 10 µM [8]: 7.85%
- inhibition at 10 µM [9]: 3.33%
- inhibition at 10 µM [10]: 17.4%
- inhibition at 10 µM [11]: 2.9%
- inhibition at 10 µM [12]: < 1%
- inhibition at 10 µM [13]: 18.6%
- inhibition at 10 µM [14]: 11.9%
- inhibition at 10 µM [15]: < 1%
- inhibition at 10 µM [16]: < 1%
- inhibition at 10 µM [17]: 2.27%
- inhibition at 10 µM [18]: < 1%
- inhibition at 10 µM [19]: 3.96%
- inhibition at 10 µM [20]: 12.5%
- inhibition at 10 µM [21]: 9.71%
- inhibition at 10 µM [22]: 4.26%
- inhibition at 10 µM [23]: 15.9%
- inhibition at 10 µM [24]: 3.4%
- inhibition at 10 µM [25]: 7.86%
- inhibition at 10 µM [26]: 9.96%
- inhibition at 10 µM [27]: 1.25%
- inhibition at 10 µM [28]: < 1%
- inhibition at 10 µM [29]: 6.92%
- inhibition at 10 µM [30]: 4.86%
- inhibition at 10 µM [31]: 9.88%
- inhibition at 10 µM [32]: 5.95%
- inhibition at 10 µM [33]: < 1%
- inhibition at 10 µM [34]: 12.7%
- inhibition at 10 µM [35]: < 1%
- inhibition at 10 µM [36]: < 1%
- inhibition at 10 µM [37]: 10.9%
- inhibition at 10 µM [38]: < 1%
- inhibition at 10 µM [39]: < 1%
- inhibition at 10 µM [40]: 33.5%
- inhibition at 10 µM [41]: < 1%
- inhibition at 10 µM [42]: 22.6%
- logP [43]: 1.44
